In patent publication US20160316732A1, “CONTROL AND CHARACTERIZATION OF PSYCHOTIC STATES” (priority 2010, published 2016):

Key:
[1] = test system: layer V pyramidal neurons; assay: Responses of layer V pyramidal neurons to hyperpolarizing/depolarizing current pulses (activity-dependent depolarization); type: cell-based, Thy1::ChR2 transgenic mice; conditions: for cells in which the activity-dependent depolarization and related phenomena were elicited: 5 μM (−) Quinpirole or 10 μM quinpirole, pooled; for effect on PCP-elicited activity-dependent depolarization and afterdepolarization: n=2 cells
Procedure: Electrophysiological recordings monitored the cellular responses of the layer V pyramidal neurons to in vitro light stimulation when under the pharmacological conditions or treatments.
Brain slices isolated from Thy1::ChR2 transgenic mice underwent direct current stimulation and a layer V pyramidal neuron was monitored by electrophysiological recordings for cellular responses to depolarizing current pulses in the absence or presence of 5 μM PCP.

[2] = test system: mice; assay: Social exploration / social behavior in mice; type: in vivo; conditions: PCP 5 mg/kg alone; FIG. 4C bottom
[3] = test system: layer V pyramidal neurons; assay: Responses of layer V pyramidal neurons to light flashes (ChR2 stimulation) in prefrontal slices; type: cell-based, Thy1::ChR2 transgenic mice
[4] = test system: layer V pyramidal neurons; assay: as above; type: cell-based, Thy1::ChR2 transgenic mice; conditions: for spikes at short interspike intervals: quinpirole, or haloperidol or sulpiride, FIG. 2E, n=4 cells per group; for spiking in response to ChR2 stimulation: p<0.001 vs control
Procedure: We used prefrontal slices from Thy1::ChR2 mice to study network activity evoked by light. Brain slices isolated from Thy1::ChR2 transgenic mice underwent in vitro light stimulation and a layer V pyramidal neuron was monitored by electrophysiological recordings for cellular responses to trains of light flashes (470 nm, 1 msec) in the absence of a D2 agonist (control) or presence a D2 agonist (20 μM quinpirole). The brain slice was subsequently washed to remove the quinpirole and treated with either 0.2-2 μM haloperidol or 5 μM sulpiride, both of which are known D2 antagonists. The spike rate of the layer V pyramidal neurons and the amount of information transmitted by the spike rate was quantified as well as the number of spikes as a function of interspike interval.

[5] = test system: layer V pyramidal neurons; assay: Whole-cell voltage-clamp of ion channel currents mediating the activity-dependent depolarization; type: cell-based, mice
From the text: We next sought to identify possible ion channel currents mediating the activity-dependent depolarization, in whole-cell voltage-clamp.

[6] = cells with prominent sag and rebound afterdepolarization
[7] = haloperidol (0.2-2 μM) or sulpiride (5 μM), pooled group
[8] = haloperidol (0.2-2 μM) or sulpiride (5 μM), pooled group, p<0.01 vs control

c1ccc(C2(N3CCCCC3)CCCCC2)cc1 [PCP, phencyclidine]
response to depolarizing current pulses ([1]; PCP 5 μM, FIG. 4A): exhibits an afterdepolarization and persistent firing | cells with activity-dependent depolarization and afterdepolarization outlasting direct stimulation ([1]; PCP 5 μM, all layer V pyramidal neurons recorded): 6/12 | cells with activity-dependent depolarization ([1]; PCP 5 μM, neurons with prominent sag and rebound afterdepolarization): 6/9 | cells with activity-dependent depolarization ([1]; PCP 5 μM, neurons without prominent sag and rebound afterdepolarization): 0/3 | wide action potentials (possible dendritic Ca2+ spikes) ([1]; PCP, FIG. 4A): in some cases found to elicit wide action potentials | social exploration [2]: impairs social exploration | spiking at short interspike intervals during trains of light pulses ([3]; PCP, Thy1::ChR2 cortical slices): suppressed spiking at short interspike intervals

CCCN1CCC[C@@H]2Cc3n[nH]cc3C[C@H]21 [(−) Quinpirole]
cells in which the activity-dependent depolarization and related phenomena were elicited [1, 6]: 8/10

CCCN1CCC[C@@H]2Cc3n[nH]cc3C[C@H]21 [quinpirole]
layer V pyramidal neurons with prolonged depolarization outlasting direct stimulation after high-frequency spiking ([4]; quinpirole 20 μM, all layer V pyramidal neurons recorded): 16/26 | amount of information the spike rate transmitted about the rate of light flashes ([4]; quinpirole 20 μM, compared with control, p<0.05): intermediate | change in responses to trains of light flashes ([4]; quinpirole 20 μM, light flashes 470 nm, 1 msec): marked change in the responses | spike afterhyperpolarization (AHP) ([4]; quinpirole 20 μM, single 1 msec light flash, FIG. 2F): enhanced the spike afterhyperpolarization | spikes at short interspike intervals [4]: loss of spikes at short interspike intervals | spike rate in response to ChR2 stimulation ([4]; quinpirole, p<0.01 vs control): lower spike rates | cells in which the activity-dependent depolarization and related phenomena were elicited [1, 6]: 8/10 | cells exhibiting the activity-dependent depolarization ([1]; 20 μM quinpirole, cells with prominent sag and rebound afterdepolarization): 16/17 | cells with bistability having peaks in power spectra between 20 and 40 Hz ([1]; quinpirole, FIG. 3F): 4/6 | cells exhibiting the activity-dependent depolarization ([1]; quinpirole, cells without prominent sag and rebound afterdepolarization): 0/9 | cells exhibiting the activity-dependent depolarization ([1]; quinpirole, neurons strongly expressing ChR2): 14/18 | current at −30 mV after a series of 1 msec steps to 0 mV ([5]; quinpirole 20 μM): elicited a slowly activating depolarizing current | tail current at −60 mV after a series of 1 msec steps to 0 mV ([5]; quinpirole 20 μM): increased a rapidly inactivating tail current

O=C(CCCN1CCC(O)(c2ccc(Cl)cc2)CC1)c1ccc(F)cc1 [haloperidol]
quinpirole-elicited prolonged depolarization after washing out quinpirole ([4]; haloperidol 1 μM, FIG. 2B): abolished | spiking in response to ChR2 stimulation [4, 7]: least | amount of information the spike rate transmitted about the rate of light flashes [4, 8]: lowest | spikes at short interspike intervals [4]: loss of spikes at short interspike intervals | effect on activity-dependent depolarization present in control conditions (before quinpirole) ([1]; haloperidol 0.2-2 μM, n=3): convert bistability into a more modest afterdepolarization, or block the activity dependent depolarization altogether | block of the quinpirole activity-dependent depolarization ([1]; haloperidol 0.2-10 μM): 9/9 | reversal of quinpirole-elicited prolonged depolarization ([3]; 0.2-10 μM haloperidol, washout of quinpirole and simultaneous application): 9/9

CCN1CCCC1CNC(=O)c1cc(S(N)(=O)=O)ccc1OC (stereo not shown) [sulpiride]
spiking in response to ChR2 stimulation [4, 7]: least | amount of information the spike rate transmitted about the rate of light flashes [4, 8]: lowest | action potential width ([4]; quinpirole + sulpiride 5 μM, FIG. 2F): widened action potentials | spikes at short interspike intervals [4]: loss of spikes at short interspike intervals | block of the quinpirole activity-dependent depolarization ([1]; sulpiride 5 μM): 2/2 | effect on PCP-elicited activity-dependent depolarization and afterdepolarization ([1]; sulpiride 5 μM, PCP 5 μM): not blocked | effect on PCP-elicited activity-dependent depolarization and afterdepolarization ([1]; sulpiride 5 μM, PCP 5 μM, listed as sulphide): not reversed | effect on quinpirole-elicited currents at −30 mV and −60 mV ([5]; sulpiride 5 μM): blocked | reversal of quinpirole-elicited prolonged depolarization ([3]; 5 μM sulpiride, simultaneous application with quinpirole): 2/2
